We go through one molecule from ChEMBL document CHEMBL3886740, “Heterocyclic compounds and uses thereof in the treatment of sexual disorders” (2016).

For this assay, the target named is T1, D(4) dopamine receptor (Homo sapiens, UniProt P21917).
T1 sequence (P21917 whole entry): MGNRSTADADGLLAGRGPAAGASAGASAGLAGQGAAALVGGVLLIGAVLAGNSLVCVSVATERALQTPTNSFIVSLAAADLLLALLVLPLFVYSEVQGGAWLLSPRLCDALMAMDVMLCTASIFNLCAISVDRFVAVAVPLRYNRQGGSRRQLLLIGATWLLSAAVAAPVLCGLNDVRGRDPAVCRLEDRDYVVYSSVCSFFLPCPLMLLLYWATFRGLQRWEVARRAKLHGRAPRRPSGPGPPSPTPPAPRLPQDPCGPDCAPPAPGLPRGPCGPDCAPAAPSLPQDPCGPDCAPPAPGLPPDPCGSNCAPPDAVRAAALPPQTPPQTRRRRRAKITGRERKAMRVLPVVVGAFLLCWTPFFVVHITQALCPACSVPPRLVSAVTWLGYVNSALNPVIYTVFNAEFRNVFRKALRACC
Put plainly: Receptor Binding Assay: Determination of binding to D4.4 receptor was performed using [3H]-YM-09151-2 (70-87 Ci/mmol, 0.3 nM), as a radioligand, in the presence of various concentrations of the tested compound. Reactions were carried out in 50 mM TRIS-HCl (pH 7.4) containing 5 mM MgCl2, 5 mM EDTA, 5 mM KCl and 1.5 mM CaCl2, for 60 minutes at 22° C. The reaction was terminated by rapid vacuum filtration onto glass fiber filters.

As a reminder, the IC50 is the midpoint of a concentration-inhibition curve. In the case of `O=c1[nH]c(CN2CCN(c3ccccc3O)CC2)nc2ccccc12`, the IC50 was found to be 10 µM.
